Values quoted from earlier work, collected in PMC7275090, “Mode of action of teixobactins in cellular membranes” (Nature Communications, 2020).

System: bacteria
Settings: cited from earlier work

Teixobactin
antibacterial activity: excellent activity
